{
  "source": "paper PMC4619705",
  "about": "(PLoS ONE, 2015)",
  "molecular_target": "T1, β3γ2L GABAARs (Homo sapiens, UniProt P18507+P28472)",
  "T1 construct": "expressed in transfected cells; host or cells: Xenopus laevis oocytes injected with β3 and γ2L mRNAs at 1:1 to 1:100",
  "T1 sequence (P28472 26-473)": "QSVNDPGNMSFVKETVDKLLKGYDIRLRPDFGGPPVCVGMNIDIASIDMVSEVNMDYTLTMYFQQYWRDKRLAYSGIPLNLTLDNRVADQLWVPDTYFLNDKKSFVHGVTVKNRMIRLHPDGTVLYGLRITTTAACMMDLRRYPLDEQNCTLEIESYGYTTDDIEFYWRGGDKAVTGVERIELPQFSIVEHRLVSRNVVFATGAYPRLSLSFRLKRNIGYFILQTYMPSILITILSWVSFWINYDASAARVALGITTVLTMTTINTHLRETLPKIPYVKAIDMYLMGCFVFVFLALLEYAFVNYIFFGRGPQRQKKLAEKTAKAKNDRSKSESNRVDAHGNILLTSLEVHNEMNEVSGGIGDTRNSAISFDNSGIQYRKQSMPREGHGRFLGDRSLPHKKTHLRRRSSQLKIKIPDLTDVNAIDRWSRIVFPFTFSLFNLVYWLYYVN",
  "T1 sequence (P18507 40-475)": "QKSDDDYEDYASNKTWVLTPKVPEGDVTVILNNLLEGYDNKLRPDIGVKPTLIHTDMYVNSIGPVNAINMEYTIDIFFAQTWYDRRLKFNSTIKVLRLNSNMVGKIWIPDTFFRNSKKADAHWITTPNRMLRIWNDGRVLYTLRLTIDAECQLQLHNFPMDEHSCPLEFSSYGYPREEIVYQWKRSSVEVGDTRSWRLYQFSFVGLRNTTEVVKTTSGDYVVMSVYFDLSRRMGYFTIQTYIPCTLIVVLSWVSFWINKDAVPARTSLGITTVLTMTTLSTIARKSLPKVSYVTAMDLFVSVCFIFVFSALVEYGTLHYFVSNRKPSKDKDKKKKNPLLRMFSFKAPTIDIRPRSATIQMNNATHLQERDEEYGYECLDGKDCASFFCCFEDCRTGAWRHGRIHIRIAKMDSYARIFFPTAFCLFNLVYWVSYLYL",
  "assay": "Two-electrode voltage clamp of β3γ2L GABAARs expressed at various β3:γ2L mRNA ratios in Xenopus oocytes",
  "format": "cell-based",
  "conditions": "for EC50: EC50 (95% CI) of direct activation; for EC50 / E max ± SEM (300 μM 2’MeO6MF-elicited current normalised against 3 mM GABA response) / n H ± SEM (Hill slope) of direct activation: -60 mV; for 2’MeO6MF activity: 100 μM; for Enhancement of GABA current (co-application): GABA EC3–10 + 100 or 300 μM ligand, data not shown; for Expression level (current response elicited by GABA): 3 mM GABA; for Frac (95% CI), proportion of maximal response mediated by the more potent component / n H_1 (Hill slope) / n H_2 (Hill slope): biphasic fit; for n H_1 (Hill slope) / n H_2 (Hill slope): Hill slopes constrained to 1",
  "description": "Human complementary DNA (cDNA) of GABAAR α2 subunit (vector: pCMV6-XL5) was purchased from OriGene Technologies (Rockville, MD, USA), and the human β3 (vector: pGEMHE) and γ2L (vector: pCDM8) subunits were generous gifts from Dr. Bjarke Ebert (H. Lundbeck A/S, Valby, Denmark) and Dr. Paul Whiting (Merck, Sharp and Dohme Research Laboratories, Harlow, Essex, UK) respectively. […] Plasmid vectors with the cDNA incorporated were linearised using appropriate restriction endonucleases (α2: SmaI; β3: NheI; γ2L: NotI). Capped RNA transcripts were synthesised from linearised plasmids using the mMessage mMachine T7 transcript kit from Ambion (Austin, TX, USA). Purified messenger RNA (mRNA) was dissolved in nuclease-free water (Ambion, Austin, TX, USA), and its quality was assessed using 1% agarose gel electrophoresis. The concentration of each subunit mRNA was measured using Nanodrop ND-100 UV-Vis spectrophotometer (Thermo Fisher Scientific, North Ryde, NSW, Australia).\nVarious combinations of α2, β3 and γ2L subunit mRNAs were mixed to different ratios as stated in the text, and diluted accordingly to a concentration of 5 ng/μL (unless otherwise stated). […] Injected oocytes were stored in ND96 storage solution supplemented with 50 μg/mL gentamycin and tetracycline at 18°C. Two-electrode voltage clamp recordings were performed on oocytes 2–4 days post-injection at room temperature (20–25°C) using a GeneClamp 500B amplifier (ADInstruments, Sydney, NSW, Australia) or a Warner OC-725C Oocyte Clamp (Warner Instrument Corp, Hamden, CT, USA). […] The recording microelectrodes (0.2–1.1 MΩ) were generated from capillary glass (Harvard Apparatus, Holliston, MA, USA) using a single-stage glass microelectrode puller (Narishige, Tokyo, Japan), and were filled with 3 M KCl solution. The perfusion system was built using a series of polycarbonate, high-density polyethylene two-way stopcocks (Qosina, Edgewood, NY, USA), connected through tubing to the recording chamber (100 μL), where the oocyte was continuously perfused with ND96 recording solution (96 mM NaCl, 2 mM KCl, 1 mM MgCl2, 1.8 mM CaCl2, 5 mM HEPES hemisodium; pH 7.4) at an approximate rate of 5 mL/min.\nPerfusates containing these chemicals were made up fresh before each application. The concentration-response curves of agonists were obtained by exposing oocytes to increasing concentrations of agonists until the currents peaked. […] All experiments were performed using at least two different batches of oocytes.\nPrism (version 5.04; GraphPad Software, La Jolla, CA, USA) was used for data analysis.\nIn all cases, we constrained the bottom to 0, and when fitting data to the biphasic model, the Hill slopes were constrained to 1. Statistical comparisons of results for different injection ratios of β3γ2L receptors were performed using ANOVA with Tukey’s post-hoc test. When comparing results from different injection ratios of β3γ2L receptors with α2β3γ2L receptors, the ANOVA Dunnett’s test was used. Pairwise comparisons were performed using Student’s t test. Statistical significance was attained at p < 0.05.",
  "note": "“And” between values parts separate entries of the source, which are not always exact repeats. Identical values can stand only once. “Also recorded” adds a separate entry of the source.",
  "data": [
    {"smiles": "COc1ccccc1-c1cc(=O)c2cc(C)ccc2o1", "note": "[2’MeO6MF, 2’-methoxy-6-methylflavone]", "values": [
      {"measurement": "EC50", "setting": "β3γ2L 1:15", "value": 45, "unit": "µM"},
      {"measurement": "EC50", "setting": "β3γ2L 1:50", "value": 62, "unit": "µM"},
      {"measurement": "EC50", "setting": "β3γ2L 1:100", "value": 63, "unit": "µM"},
      {"measurement": "2’MeO6MF activity", "setting": "β3γ2L 1:1", "value": "inhibited the constitutive activity; also recorded: inverse agonist; also recorded: Inverse agonism"},
      {"measurement": "2’MeO6MF activity", "setting": "β3γ2L 1:5", "value": "mixed agonist and inverse agonist activity; also recorded: mixed inverse agonist and agonist effect; also recorded: Inverse agonism/activation"},
      {"measurement": "2’MeO6MF activity", "setting": "β3γ2L 1:10", "value": "mixed agonist and inverse agonist activity; also recorded: mixed inverse agonist and agonist effect; also recorded: Inverse agonism/activation"},
      {"measurement": "2’MeO6MF activity", "setting": "β3γ2L 1:15", "value": "directly activated receptors expressed efficaciously; also recorded: Activation"},
      {"measurement": "Elicited current, % of the 3 mM GABA responses (mean ± SEM)", "setting": "β3γ2L 1:15, 100 μM ligand", "value": "87 ± 4.5", "unit": "%"},
      {"measurement": "E max ± SEM (300 μM 2’MeO6MF-elicited current normalised against 3 mM GABA response)", "setting": "β3γ2L 1:15", "value": "1.2 ± 0.10"},
      {"measurement": "n H ± SEM (Hill slope) of direct activation", "setting": "β3γ2L 1:15", "value": "1.8 ± 0.42"},
      {"measurement": "Enhancement of GABA current (co-application)", "setting": "β3γ2L 1:15", "value": "No enhancement"},
      {"measurement": "2’MeO6MF activity", "setting": "β3γ2L 1:20", "value": "variable efficacy; also recorded: Activation"},
      {"measurement": "Elicited current, % of the 3 mM GABA responses (mean ± SEM)", "setting": "β3γ2L 1:20, 100 μM ligand", "value": "approximately 34 ± 4.0%"},
      {"measurement": "Relative efficacy, range across oocytes, % of the 3 mM GABA responses", "setting": "β3γ2L 1:20, 100 μM ligand", "value": "1.0 to 120", "unit": "%"},
      {"measurement": "2’MeO6MF activity", "setting": "β3γ2L 1:50", "value": "activation with low efficacy"},
      {"measurement": "Elicited current, % of the 3 mM GABA responses (mean ± SEM)", "setting": "β3γ2L 1:50, 100 μM ligand", "value": "around 6.7 ± 1.2%"},
      {"measurement": "E max ± SEM (300 μM 2’MeO6MF-elicited current normalised against 3 mM GABA response)", "setting": "β3γ2L 1:50", "value": "0.086 ± 0.018"},
      {"measurement": "n H ± SEM (Hill slope) of direct activation", "setting": "β3γ2L 1:50", "value": "1.4 ± 0.88"},
      {"measurement": "2’MeO6MF activity", "setting": "β3γ2L 1:100", "value": "activation with low efficacy"},
      {"measurement": "Elicited current, % of the 3 mM GABA responses (mean ± SEM)", "setting": "β3γ2L 1:100, 100 μM ligand", "value": "~5.1 ± 0.72", "unit": "%"},
      {"measurement": "E max ± SEM (300 μM 2’MeO6MF-elicited current normalised against 3 mM GABA response)", "setting": "β3γ2L 1:100", "value": "0.10 ± 0.020"},
      {"measurement": "n H ± SEM (Hill slope) of direct activation", "setting": "β3γ2L 1:100", "value": "1.6 ± 0.76"},
      {"measurement": "Enhancement of GABA current (co-application)", "setting": "β3γ2L 1:100", "value": "No enhancement"}
    ]},
    {"smiles": "NCCCC(=O)O", "note": "[GABA, γ-aminobutyric acid]", "values": [
      {"measurement": "Expression level (current response elicited by GABA)", "setting": "β3γ2L 1:1", "value": "110 ± 34", "unit": "nA"},
      {"measurement": "Expression level (current response elicited by GABA)", "setting": "β3γ2L 1:5", "value": "270 ± 80", "unit": "nA"},
      {"measurement": "Expression level (current response elicited by GABA)", "setting": "β3γ2L 1:10", "value": "310 ± 61", "unit": "nA"},
      {"measurement": "I max ± SEM (current amplitude elicited by 30 mM GABA)", "setting": "β3γ2L 1:15", "value": "780 ± 220", "unit": "nA"},
      {"measurement": "Expression level (current response elicited by GABA)", "setting": "β3γ2L 1:15", "value": "490 ± 47", "unit": "nA"},
      {"measurement": "n H_1 ± SEM (Hill slope)", "setting": "β3γ2L 1:15, monophasic fit", "value": "0.54 and 0.54 ± 0.040"},
      {"measurement": "Expression level (current response elicited by GABA)", "setting": "β3γ2L 1:20", "value": "860 ± 87", "unit": "nA"},
      {"measurement": "I max ± SEM (current amplitude elicited by 30 mM GABA)", "setting": "β3γ2L 1:50", "value": "1000 ± 250", "unit": "nA"},
      {"measurement": "Expression level (current response elicited by GABA)", "setting": "β3γ2L 1:50", "value": "1000 ± 160", "unit": "nA"},
      {"measurement": "Frac (95% CI), proportion of maximal response mediated by the more potent component", "setting": "β3γ2L 1:50", "value": "0.74 (0.67–0.80)"},
      {"measurement": "n H_1 (Hill slope)", "setting": "β3γ2L 1:50", "value": 1.0},
      {"measurement": "n H_2 (Hill slope)", "setting": "β3γ2L 1:50", "value": 1.0},
      {"measurement": "I max ± SEM (current amplitude elicited by 30 mM GABA)", "setting": "β3γ2L 1:100", "value": "1000 ± 97", "unit": "nA"},
      {"measurement": "Expression level (current response elicited by GABA)", "setting": "β3γ2L 1:100", "value": "1100 ± 100", "unit": "nA"},
      {"measurement": "Frac (95% CI), proportion of maximal response mediated by the more potent component", "setting": "β3γ2L 1:100", "value": "0.71 (0.65–0.77)"},
      {"measurement": "n H_1 (Hill slope)", "setting": "β3γ2L 1:100", "value": 1.0},
      {"measurement": "n H_2 (Hill slope)", "setting": "β3γ2L 1:100", "value": 1.0}
    ]}
  ]
}
